Laboratory results published in ChEMBL document CHEMBL5113381, “Large-Scale Screening of Antifungal Peptides Based on Quantitative Structure-Activity Relationship” (2022).
Values after ≈ are worked out from the molar mass of the structure shown. Peptide text beside a SMILES is read from it.

Columns and labels:
Type in all cases: functional
Candida albicans = test: Antifungal activity against Candida albicans SC5314 measured after 24 to 48 hrs by CLSI method; conditions: time 24-48 hrs
Pichia kudriavzevii = test: Antifungal activity against Candida krusei IFM56881 measured after 24 to 48 hrs by CLSI method; conditions: time 24-48 hrs
Cryptococcus neoformans = test: Antifungal activity against Cryptococcus neoformans H99 measured after 24 to 48 hrs by CLSI method; conditions: time 24-48 hrs
Candida parapsilosis = test: Antifungal activity against Candida parapsilosis ATCC 22019 measured after 24 to 48 hrs by CLSI method; conditions: Lodderomyces parapsilosis, time 24-48 hrs

MIC (Candida albicans) | MIC (Pichia kudriavzevii) | MIC (Cryptococcus neoformans) | MIC (Candida parapsilosis) | SMILES
> 73.8 µM | > 73.8 µM | 2.31 µM (≈ 8.02 µg/mL) | 18.4 µM (≈ 64 µg/mL) | CSCC[C@H](NC(=O)[C@H](CCCNC(=N)N)NC(=O)[C@H](CCCCN)NC(=O)[C@H](CCCCN)NC(=O)[C@H](CCCCN)NC(=O)[C@H](Cc1c[nH]c2ccccc12)NC(=O)[C@H](CCCCN)NC(=O)[C@@H]1CCCN1C(=O)[C@H](CCCNC(=N)N)NC(=O)[C@@H](N)CCSC)C(=O)N[C@@H](CCCNC(=N)N)C(=O)N[C@@H](CCCNC(=N)N)C(=O)N[C@@H](CC(C)C)C(=O)N[C@@H](CCCCN)C(=O)N[C@@H](CCCNC(=N)N)C(=O)N[C@@H](CCCCN)C(=O)N[C@@H](CCCNC(=N)N)C(=O)N[C@@H](CCCCN)C(=O)N[C@@H](CCC(N)=O)C(=O)N[C@@H](CCCNC(=N)N)C(=O)N[C@@H](CCCNC(=N)N)C(=O)N[C@@H](C)C(=O)N[C@@H](CCCNC(=N)N)C(=O)N[C@@H](Cc1ccc(O)cc1)C(=O)N[C@@H](CCCCN)C(=O)O
14.3 µM (≈ 32 µg/mL) | 28.6 µM (≈ 64 µg/mL) | 1.79 µM (≈ 4.01 µg/mL) | 7.14 µM (≈ 16 µg/mL) | CC[C@H](C)[C@H](NC(=O)CNC(=O)[C@H](CCCNC(=N)N)NC(=O)[C@H](Cc1ccc(O)cc1)NC(=O)[C@H](CS)NC(=O)[C@@H](NC(=O)[C@H](CCCNC(=N)N)NC(=O)[C@H](Cc1ccccc1)NC(=O)[C@H](CS)NC(=O)[C@H](Cc1c[nH]c2ccccc12)NC(=O)[C@@H](N)CCCCN)C(C)C)C(=O)N[C@@H](CS)C(=O)N[C@@H](Cc1ccc(O)cc1)C(=O)N[C@@H](CCCNC(=N)N)C(=O)N[C@@H](CCCCN)C(=O)N[C@@H](CS)C(=O)N[C@@H](CCCNC(=N)N)C(=O)O (H-KWCFRVCYRGICYRKCR-OH)
14.1 µM (≈ 32 µg/mL) | 28.2 µM (≈ 64 µg/mL) | 3.53 µM (≈ 8.01 µg/mL) | 7.05 µM (≈ 16 µg/mL) | CC[C@H](C)[C@H](NC(=O)CNC(=O)[C@H](CCCNC(=N)N)NC(=O)[C@H](Cc1ccc(O)cc1)NC(=O)[C@H](CS)NC(=O)[C@@H](NC(=O)[C@H](CCCNC(=N)N)NC(=O)[C@H](Cc1ccccc1)NC(=O)[C@H](CS)NC(=O)[C@H](Cc1c[nH]c2ccccc12)NC(=O)[C@@H](N)CCCCN)C(C)C)C(=O)N[C@@H](CS)C(=O)N[C@@H](Cc1ccc(O)cc1)C(=O)N[C@@H](CCCNC(=N)N)C(=O)N[C@@H](CCCNC(=N)N)C(=O)N[C@@H](CS)C(=O)N[C@@H](CCCNC(=N)N)C(=O)O (H-KWCFRVCYRGICYRRCR-OH)
> 74.9 µM | > 74.9 µM | 37.4 µM (≈ 128 µg/mL) | > 74.9 µM | CSCC[C@H](N)C(=O)N[C@@H](C)C(=O)N[C@H](C(=O)N[C@@H](CCCCN)C(=O)N[C@@H](CCCCN)C(=O)N[C@@H](CCCCN)C(=O)N[C@H](C(=O)N[C@H](C(=O)N[C@@H](CCCCN)C(=O)N[C@@H](CCCCN)C(=O)N[C@@H](C)C(=O)N[C@H](C(=O)N[C@@H](CCCCN)C(=O)N[C@@H](CCCCN)C(=O)N[C@H](C(=O)N[C@@H](C)C(=O)N[C@@H](CCCCN)C(=O)N[C@@H](CCCCN)C(=O)N[C@@H](C)C(=O)N1CCC[C@H]1C(=O)N[C@@H](CCCCN)C(=O)N[C@@H](CCCCN)C(=O)N[C@@H](C)C(=O)N[C@H](C(=O)N[C@@H](CCCCN)C(=O)N[C@@H](CCCCN)C(=O)N[C@H](C(=O)N[C@@H](C)C(=O)N[C@@H](CCCCN)C(=O)N[C@@H](CCCCN)C(=O)N[C@@H](CCCCN)C(=O)O)C(C)C)C(C)C)C(C)C)C(C)C)C(C)C)C(C)C)[C@@H](C)O (H-MATKKKVVKKAVKKVAKKAPKKAVKKVAKKK-OH)
> 106 µM | > 106 µM | > 106 µM | > 106 µM | CC[C@H](C)[C@H](NC(=O)CNC(=O)[C@H](C)NC(=O)[C@H](CC(C)C)NC(=O)[C@H](C)NC(=O)[C@H](Cc1c[nH]c2ccccc12)NC(=O)[C@H](CC(C)C)NC(=O)[C@H](CCCCN)NC(=O)[C@H](CCCCN)NC(=O)[C@H](Cc1ccc(O)cc1)NC(=O)[C@H](CCCCN)NC(=O)[C@@H](N)CCSC)C(=O)N[C@@H](C)C(=O)N[C@@H](CC(C)C)C(=O)N[C@@H](CO)C(=O)N[C@@H](CS)C(=O)N[C@@H](CC(N)=O)C(=O)N[C@@H](CC(C)C)C(=O)N[C@@H](CC(C)C)C(=O)N[C@@H](CC(C)C)C(=O)N[C@H](C(=O)N[C@@H](C)C(=O)O)[C@@H](C)O (H-MKYKKLWALAGIALSCNLLLTA-OH)
> 102 µM | > 102 µM | > 102 µM | > 102 µM | CC[C@H](C)[C@H](NC(=O)[C@@H](NC(=O)[C@H](Cc1ccccc1)NC(=O)[C@H](CS)NC(=O)[C@@H](NC(=O)[C@H](CC(C)C)NC(=O)[C@H](Cc1ccccc1)NC(=O)[C@@H](NC(=O)[C@H](Cc1ccccc1)NC(=O)CNC(=O)[C@H](Cc1ccccc1)NC(=O)[C@H](CCCCN)NC(=O)[C@H](CCCCN)NC(=O)[C@H](CCCCN)NC(=O)[C@H](CC(C)C)NC(=O)[C@@H](N)CCSC)C(C)C)C(C)C)C(C)C)C(=O)N[C@@H](Cc1ccccc1)C(=O)N[C@@H](Cc1cnc[nH]1)C(=O)N[C@@H](CO)C(=O)N[C@@H](CS)C(=O)N[C@@H](CCCCN)C(=O)O (H-MLKKKFGFVFLVCFVIFHSCK-OH)
14.2 µM (≈ 32 µg/mL) | 56.9 µM (≈ 128 µg/mL) | 7.12 µM (≈ 16 µg/mL) | 14.2 µM (≈ 32 µg/mL) | CC[C@H](C)[C@H](NC(=O)[C@H](CCCCN)NC(=O)[C@H](CO)NC(=O)[C@H](Cc1ccccc1)NC(=O)[C@@H](NC(=O)[C@@H](NC(=O)[C@H](CCCNC(=N)N)NC(=O)[C@H](Cc1ccccc1)NC(=O)[C@@H](NC(=O)[C@H](CCCCN)NC(=O)[C@H](CC(N)=O)NC(=O)[C@@H](N)CCSC)[C@@H](C)CC)C(C)C)[C@@H](C)CC)C(=O)N[C@@H](CC(C)C)C(=O)NCC(=O)N[C@@H](CCCNC(=N)N)C(=O)N[C@@H](CC(C)C)C(=O)N[C@H](C(=O)N[C@H](C(=O)N[C@H](C(=O)O)[C@@H](C)O)C(C)C)[C@@H](C)CC (H-MNKIFRVIFSKILGRLIVT-OH)
> 92.2 µM | > 92.2 µM | 92.2 µM (≈ 256 µg/mL) | > 92.2 µM | CC[C@H](C)[C@H](NC(=O)[C@H](CCC(N)=O)NC(=O)[C@H](CCCCN)NC(=O)[C@H](CCCCN)NC(=O)[C@H](Cc1c[nH]c2ccccc12)NC(=O)[C@@H]1CCCN1C(=O)[C@@H](NC(=O)[C@H](CC(C)C)NC(=O)[C@H](CCCNC(=N)N)NC(=O)[C@H](CC(C)C)NC(=O)[C@@H](NC(=O)[C@H](CC(C)C)NC(=O)[C@@H]1CCCN1C(=O)[C@H](CCCCN)NC(=O)[C@H](Cc1cnc[nH]1)NC(=O)[C@H](CS)NC(=O)[C@H](CCCCN)NC(=O)[C@H](CCCNC(=N)N)NC(=O)[C@H](CC(C)C)NC(=O)[C@H](CCCNC(=N)N)NC(=O)[C@@H](N)CCSC)[C@@H](C)O)C(C)C)C(=O)N[C@@H](CCSC)C(=O)O (H-MRLRKCHKPLTLRLVPWKKQIM-OH)
43.8 µM (≈ 128 µg/mL) | 21.9 µM (≈ 64 µg/mL) | 5.47 µM (≈ 16 µg/mL) | 43.8 µM (≈ 128 µg/mL) | CC[C@H](C)[C@H](NC(=O)[C@H](CCCCN)NC(=O)[C@@H](NC(=O)[C@@H](N)CCSC)[C@@H](C)O)C(=O)N[C@@H](CC(C)C)C(=O)N[C@@H](CC(C)C)C(=O)N[C@H](C(=O)N[C@H](C(=O)N[C@@H](CCCCN)C(=O)N[C@@H](CCCNC(=N)N)C(=O)N[C@@H](CC(C)C)C(=O)N[C@@H](CCCNC(=N)N)C(=O)N[C@H](C(=O)N[C@H](C(=O)N[C@@H](Cc1ccc(O)cc1)C(=O)N[C@H](C(=O)N[C@@H](CCCCN)C(=O)N[C@@H](CCCNC(=N)N)C(=O)N[C@@H](CS)C(=O)N[C@@H](CC(C)C)C(=O)N[C@@H](CS)C(=O)N[C@@H](Cc1ccccc1)C(=O)N[C@@H](CCCNC(=N)N)C(=O)N[C@@H](C)C(=O)O)[C@@H](C)O)C(C)C)[C@@H](C)O)C(C)C)[C@@H](C)CC (H-MTKILLIVKRLRTVYTKRCLCFRA-OH)
